1 substance from patent US20200032271A1, “COMBINATION THERAPY WITH LIPOSOMAL ANTISENSE OLIGONUCLEOTIDES” (Bio-Path Holdings, Inc., priority 2016, published 2020) can be followed below.

Values joined by “and” are separate entries in the source; they are usually repeats but may differ in a detail not shown here. Equal entries are not always repeated. [PEt] = P-ethoxy (ethyl phosphotriester) internucleoside linkage

The test system of data set [1] is acute myeloid leukemia (AML) cells. Description: Cytarabine cytotoxicity after BP1001 pretreatment. The following applies: preclinical studies. The class given is cell-based.
The test system of data set [2] is five strains of Salmonella. As to the kind of experiment: Ames mutagenicity study. The class given is cell-based. The following applies: presence and absence of S-9. How it is done:
BP1001 was tested in an Ames mutagenicity study. Sodium chloride (0.9%) was added to vials of BP1001 containing 5 mg of Grb2 oligonucleotide. The sample was tested against five strains of Salmonella in various concentrations in the presence and absence of the S-9 enzyme activation system. The sample was not mutagenic to the strains tested.

In data set [3] the test system is BV173 cells. As to the kind of experiment: Cell cycle analysis (7-AAD flow cytometry). To be noted: BP1001 1 day before dasatinib, harvested three days later (FIGS. 8A-D). The data set is classed as cell-based, human. Here is the method:
Cells were then fixed and permeabilized for 1 h at 4° C. with 1×Fixation/Permeabilization buffer (Ebioscience, San Diego, Calif., USA). After permeabilization, cells were washed and incubated with 7-aminoactinomycin D (7-AAD, Biolegend, San Diego, Calif., USA) in the dark at 4° C. for about 30 min. Flow cytometric data acquisition was acquired using BD FACSDiva™ software (BD Biosciences, San Jose, Calif., USA). The flow cytometer was set to collect 20,000 events. Relative percentages in the different cell cycle phases (sub-G1, G1, S, G2/M) were reported.
[…] Three days later, cells were harvested and processed for flow cytometry.

The procedure of data set [4]:
The potential toxicity of a twice weekly intravenously (slow bolus) administered BP1001 in Dutch Belted rabbits was conducted. BP1001 was administered over a 28-day period followed by a 2-week recovery phase.
Doses were administered on Study Days 1, 3, 8, 10, 15, 17, 22, and 24. The first day of dosing on the study was designated as Study Day 1. The doses were given at approximately the same time each day. Individual dose volumes were calculated based on the most recently recorded body weight for each animal. Study Day 1 dose levels were calculated on a pretest body weight.

The conditions of data set [5]: rat, in vivo, iv.
Procedure: Blood (0.3 mL) was collected through the right femoral artery at 5, 10, 20, 30, 60, 90, 120, 180, and 240 minutes following injection. After each withdrawal, the catheter was flushed with sodium heparin 1:1000 (Units/mL). Whole blood samples were extracted and assayed for ^32P radioactivity by liquid scintillation as previously described (Tani, 1998; Gutierrez-Puente, 1999). Pharmacokinetic parameters were determined by nonlinear regression analysis (Rstrip; Micro Math, Inc., Salt Lake City, Utah).
Data set [6] concerns phosphorylated Erk1,2 (pErk). Description: Flow cytometry of pErk levels in circulating leukemia cells of patients. The following applies: for pErk decrease (%) (Day 15) / pErk decrease (%) (Day 22 or end-of-treatment): individual subjects. The class given is in vivo, human. The text has this:
Flow cytometry was used to determine the levels of Grb2 and pErk proteins in the circulating leukemia cells of patients who were on BP1001 single agent therapy, and were reported as median fluorescent intensity (MFI). MFI of Grb2 and pErk during treatment were compared to those at baseline.
Peripheral blood was collected from patients in cohorts 3, 4, 5, and 6, before being dosed on Cycle 1 days 1, 8, 15 and 22, and Cycle 2 day 1. White blood cells were isolated from peripheral blood using BD Vacutainer CPT cell preparation tubes with sodium heparin (BD Dickinson), fixed and stored in −80° C. freezer. Flow cytometry was utilized to determine Grb2 and phosphorylated Erk1,2 (pErk) levels in CD33-expressing cells using a validated method (Flow Contract Site Laboratory, Bothell, Wash., USA).
Flow cytometry was utilized to determine the levels of Grb2 and pErk proteins in the circulating leukemia cells of patients who were on BP1001 single agent therapy, and were reported as median fluorescent intensity (MFI). MFI of Grb2 and pErk during treatment were compared to those at baseline (Table 7).

The nature of data set [7]: Phase I study: dose-limiting toxicity and maximum tolerated dose. The class given is in vivo, human. How it is done: A BP1001 phase I study was conducted in two parts: (A) BP1001 dose escalation and (B) BP1001 with concurrent low-dose cytarabine (LDAC) dose expansion. For dose escalation (Part A), a standard “3+3” design was used in which successive cohorts of 3 or more patients with hematologic malignancies were treated at escalating doses from 5 to 135 mg/m^2 of BP1001 until a maximum tolerated dose (MTD) was identified. For the dose expansion portion of the study (Part B), two successive subsets of patients with AML were treated with BP1001 at the MTD (or highest tested dose [HTD]) and one level below the MTD (or HTD) in combination with a fixed dose of LDAC to further characterize safety and biological effect, as well as identify the recommended phase 2 dose. Both parts of the study employed an open-label, sequential, dose-escalation design to assess safety, tolerability and toxicity, pharmacokinetics (PK), tumor response, and anti-leukemic activity. A total of 39 patients were treated in the study: AML (n=30), CML-BP (n=5), and MDS (n=4). Of 39 patients, 27 were evaluable; 12 failed completion of a full cycle due to disease progression and were replaced per protocol. Only one patient on 5 mg/m^2 experienced a dose-limiting toxicity (DLT), grade 3 mucositis and hand-foot syndrome, while on high-dose hydroxyurea for proliferative CML-BP. The study medication could not be ruled out as a contributing factor, so this event was reported as a DLT. Upon expansion to six patients, no other patient developed a DLT. No other drug related toxicity has been observed in any of the patients treated. […] The HTD for BP1001 is 90 mg/m^2.
The study was designed as a standard 3+3 dose escalation trial for the assessment of safety, pharmacokinetics and efficacy of BP1001 in adult patients diagnosed with refractory/relapsed Philadelphia chromosome positive CML or ALL, AML, or MDS. Cohorts of three patients were enrolled at each dose level. The initial dose of BP1001 was 5 mg/m^2 (Cohort 1). If one patient developed a grade 3 or higher toxicity, three more patients were accrued at that dose level. […]

For the substance “BP1001: liposome-incorporated P-ethoxy antisense oligodeoxynucleotide (5′-ATATTTGGCGATGGCTTC-3′, SEQ ID NO: 1) specific to grb2 mRNA, in neutral DOPC liposomes (DNA, all [PEt], methylation of C not given here; incorporated in neutral DOPC liposomes)”, the “effect of pretreatment on cytarabine cytotoxicity” value in data set [1] is “enhances cytarabine cytotoxicity”. Besides, in data set [2], the mutagenicity entry was “not mutagenic”. In addition, in data set [3], the “percentage of cells in sub-G1 phase” value was 3.1%. In addition, in data set [4] (rabbit), the “effects on coagulation parameters” value was “no observed effects”. The “toxicity (clinical observations, body weights, bone marrow cytology, clinical pathology, organ weights, microscopic findings)” value in data set [4] (rabbit, 3.75, 5.00 or 7.50 mg/kg i.v. slow bolus twice weekly, 28 days) was “no apparent toxicity”. Moreover, in data set [5], the “t1/2α (initial distribution phase)” value worked out at 5.16 ± 0.3 min. Further, in data set [5] (10 mg/kg), the “Area under the concentration curve (AUC)” value worked out at 5.4 ± 0.9 mg·min/mL, the “immediate apparent volume of distribution” value came out at 36.42 ± 1.88 mL, the residence time was 309.6 ± 21.5 min and the “terminal phase half-life (t1/2β)” value was 3.76 ± 0.22 h. Further, in data set [6] (cohort 3, 20 mg/m^2), the “pErk decrease (%) (Day 15)” value was 3% and 28% and 0%; the “pErk decrease (%) (Day 22 or end-of-treatment)” value is 45% and 35% and 0%. In addition, in data set [6] (cohort 4, 40 mg/m^2), the “pErk decrease (%) (Day 15)” value was 82% and 0%; the “pErk decrease (%) (Day 22 or end-of-treatment)” value is 91% and 0% and 27%. Moreover, in data set [6] (cohort 5, 60 mg/m^2), the “pErk decrease (%) (Day 15)” value is 0% and 51% and 55%; the “pErk decrease (%) (Day 22 or end-of-treatment)” value is 54% and 0% and 47%. In addition, in data set [6] (cohort 6, 90 mg/m^2), the “pErk decrease (%) (Day 15)” value was 0% and 54% and 42%; the “pErk decrease (%) (Day 22 or end-of-treatment)” value is 0% (2×) and 63%. In addition, in data set [6] (last measured sample), the “average decrease in pErk levels” value is 52%. The “samples with ≥25% decrease of pErk levels” value in data set [6] (last measured sample (end of treatment or cycle 1 day 22), MFI vs baseline) was 7 out of 12. Also, the “patients with dose-limiting toxicity (grade 3 mucositis and hand-foot syndrome)” value in data set [7] (5 mg/m^2, patient on high-dose hydroxyurea for CML-BP, no other DLT after expansion to six) is given as “one”. Besides, the “highest tested dose (HTD)” value in data set [7] (patients) is recorded as 90 mg/m^2. For the same substance, the “maximum tolerated dose (MTD)” value in data set [7] (patients, 5 to 90 mg/m^2 i.v. twice weekly) was “not identified”.
